Laboratory results from the supplement of paper PMC4862054.

Experiments:
Settings in all cases: incubation time: 72 h
BT-474 [1] = experiment: drug sensitivity score (DSS), CellTiter-Glo (DSS (AUC-based score)); higher = stronger drug effect (viability inhibition or cytotoxicity); extreme values may be limits of the assay
Procedure, shortened: (§1)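 After 72 h of incubation in 384-well plates with compound at 5 concentrations (10-fold steps, 10,000-fold range set per compound), breast cancer cell lines seeded in 20 µl suspension were read first for CellTox Green fluorescence at 485/520 nm. CellTiter-Glo luminescence was measured next, after 10 min at room temperature. Normalisation on each plate used 0.1 % DMSO and a positive kill control, and the drug sensitivity score was computed from the area under the fitted dose-response curve.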

BT-549 = experiment: as above
Procedure, shortened: as §1

CAL-120 [2] = experiment: as above
Procedure, shortened: as §1

CAL-148 = experiment: as above
Procedure, shortened: as §1

CAL-51 = experiment: as above
Procedure, shortened: as §1

CAL-85-1 [3] = experiment: as above
Procedure, shortened: as §1

DU-4475 = experiment: as above
Procedure, shortened: as §1

HCC1143 [4] = experiment: as above
Procedure, shortened: as §1

HCC1599 = experiment: as above
Procedure, shortened: as §1

HCC1937 [5] = experiment: as above
Procedure, shortened: as §1

HDQ-P1 = experiment: as above
Procedure, shortened: as §1

Hs578T = experiment: as above
Procedure, shortened: as §1

MCF-10A [6] = experiment: as above
Procedure, shortened: as §1

MDA-MB-231 = experiment: as above
Procedure, shortened: as §1

MDA-MB-436 [7] = experiment: as above
Procedure, shortened: as §1

MDA-MB-453 = experiment: as above
Procedure, shortened: as §1

MDA-MB-468 [8] = experiment: as above
Procedure, shortened: as §1

MFM-223 = experiment: as above
Procedure, shortened: as §1

SK-BR-3 = experiment: as above
Procedure, shortened: as §1

BT-474 [9] = experiment: drug sensitivity score (DSS), CellTox Green (DSS (AUC-based score)); higher = stronger drug effect (viability inhibition or cytotoxicity); extreme values may be limits of the assay
Procedure, shortened: as §1

CAL-120 [10] = experiment: as above
Procedure, shortened: as §1

CAL-85-1 [11] = experiment: as above
Procedure, shortened: as §1

HCC1143 [12] = experiment: as above
Procedure, shortened: as §1

HCC1937 [13] = experiment: as above
Procedure, shortened: as §1

MCF-10A [14] = experiment: as above
Procedure, shortened: as §1

MDA-MB-436 [15] = experiment: as above
Procedure, shortened: as §1

MDA-MB-468 [16] = experiment: as above
Procedure, shortened: as §1

Compound	drug sensitivity score (BT-474 [1])	drug sensitivity score (BT-549)	drug sensitivity score (CAL-120 [2])	drug sensitivity score (CAL-148)	drug sensitivity score (CAL-51)	drug sensitivity score (CAL-85-1 [3])	drug sensitivity score (DU-4475)	drug sensitivity score (HCC1143 [4])	drug sensitivity score (HCC1599)	drug sensitivity score (HCC1937 [5])	drug sensitivity score (HDQ-P1)	drug sensitivity score (Hs578T)	drug sensitivity score (MCF-10A [6])	drug sensitivity score (MDA-MB-231)	drug sensitivity score (MDA-MB-436 [7])	drug sensitivity score (MDA-MB-453)	drug sensitivity score (MDA-MB-468 [8])	drug sensitivity score (MFM-223)	drug sensitivity score (SK-BR-3)	drug sensitivity score (BT-474 [9])	drug sensitivity score (CAL-120 [10])	drug sensitivity score (CAL-85-1 [11])	drug sensitivity score (HCC1143 [12])	drug sensitivity score (HCC1937 [13])	drug sensitivity score (MCF-10A [14])	drug sensitivity score (MDA-MB-436 [15])	drug sensitivity score (MDA-MB-468 [16])
CC(C)(C)c1nc(-c2cccc(NS(=O)(=O)c3c(F)cccc3F)c2F)c(-c2ccnc(N)n2)s1 [Dabrafenib]	0	0	8.71	0	0	0	19	0	0	0	0	0.389	0	0	0	0	0	0	0	0	0	0	0	1.11	0	0	0
Cn1cc(C2=C(c3cn(C4CCN(Cc5ccccn5)CC4)c4ccccc34)C(=O)NC2=O)c2ccccc21 [Enzastaurin]	0	0	0	0	0	0	0	0	0	0	0	0	0	0	0	0	0	0	0	0	0	0	0	0	0	0	0
Cc1nc(C(=O)NCC(=O)O)c(O)c2ccc(Oc3ccccc3)cc12 [FG-4592]	0	0	0	0	0	0	0	0	0	0	0	0	0	0	0	0	0	0	0	0	0	0	0	0	0	0	0
CC(C)(C)NC(=O)[C@H]1CC[C@H]2[C@@H]3CC[C@H]4NC(=O)C=C[C@]4(C)[C@H]3CC[C@]12C [Finasteride]	0	0	0	0	0	0	0	0	0	0	0	0	0	0	0	0	0	0	0	0	0	0	0	0	0	0	0
Nc1ccn([C@@H]2O[C@H](CO)[C@@H](O)C2(F)F)c(=O)n1 [Gemcitabine]	3.22	14.7	3.04	10.6	16.7	12.4	4.13	14.5	12.8	0	1.57	4.8	5.69	0	16.8	4.36	19.7	0	13.6	0	0	4.04	0	0	0	0	19.7
CC(C)C[C@H](NC(=O)[C@@H](COC(C)(C)C)NC(=O)[C@H](Cc1ccc(O)cc1)NC(=O)[C@H](CO)NC(=O)[C@H](Cc1c[nH]c2ccccc12)NC(=O)[C@H](Cc1cnc[nH]1)NC(=O)[C@@H]1CCC(=O)N1)C(=O)N[C@@H](CCCNC(=N)N)C(=O)N1CCC[C@H]1C(=O)NNC(N)=O [Goserelin]	0	0	0	0	0	0	0	0	0	0	0	0	0	0	0	0	0	0	0	0.105	0	0	0	0	0	0	0
O=C(O)CNC(=O)c1c(O)c2ccccc2n(Cc2ccccc2)c1=O [IOX-2]	0	0.135	0	0	3.96	0	0	0	0	0	0	0	0	0	0	0	0	0	0	0	0	0	0	0	0	0	0
CC(=O)[C@]1(O)Cc2c(O)c3c(c(O)c2[C@@H](O[C@H]2C[C@H](N)[C@H](O)[C@H](C)O2)C1)C(=O)c1ccccc1C3=O [Idarubicin]	4.44	9.35	1.91	10.5	14.5	6.75	8.12	3.11	3.71	2.31	1.38	6.15	3.11	4.79	8.24	1.75	9.11	3.67	7.9	4.95	0	8.04	0	0	1.59	0	10.5
C/C(=C\c1csc(C)n1)[C@@H]1C[C@@H]2O[C@]2(C)CCC[C@H](C)[C@H](O)[C@@H](C)C(=O)C(C)(C)[C@@H](O)CC(=O)N1 [Ixabepilone]	1.23	13.9	0	0	14.8	2.2	0	0	0	0	0	0	0	0	0	0	13.9	0	0	0	0	4.02	0	0	0	0	1.3
C=CCn1c(=O)c2cnc(Nc3ccc(N4CCN(C)CC4)cc3)nc2n1-c1cccc(C(C)(C)O)n1 [MK1775]	13.9	15.7	12.1	19.3	15.5	16.2	8.47	11.6	19.9	12.4	14.9	14.5	9.77	15.7	16.7	14.6	12.5	12.4	18.8	6.62	4.54	16.5	3.3	0	8.71	13.8	11.1
CN(Cc1cnc2nc(N)nc(N)c2n1)c1ccc(C(=O)N[C@@H](CCC(=O)O)C(=O)O)cc1 [Methotrexate]	7.54	0	17.3	0	16.2	9.24	0	0	1.47	30.2	23.1	2.72	0	7.21	3.7	0	0	0	0	0	0	0.579	1.72	0	0	2.33	0
CO[C@@H]1[C@H](N(C)C(=O)c2ccccc2)C[C@H]2O[C@]1(C)n1c3ccccc3c3c4c(c5c6ccccc6n2c5c31)C(=O)NC4 [Midostaurin]	10.5	13.8	9.74	0	15.9	2.25	9.68	8.75	0	7.38	6.88	15.7	17	10.8	3.96	0	14.6	3.44	7.66	0.973	3.96	0	0	0	0	0	17
